Reference: ChEMBL document CHEMBL1201862, “PubChem BioAssay data set” (2004)
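How tested: cells in 96-well plates exposed to compound for 48 hours at five concentrations. The concentration for 50% growth inhibition is given as GI50.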 The source made the active and inactive calls. Rule as the data show it: active = GI50 up to about 1.1 µM and inactive = higher.

Assays:
Experiment in all cases: DTP human tumour cell line panel, 48 h
[1] = tested on: SK-MEL-28
[2] = tested on: MOLT-4
[3] = tested on: SNB-19
[4] = tested on: U-251
[5] = tested on: Hs-578T
[6] = tested on: RXF 393
[7] = tested on: OVCAR-3
[8] = tested on: Malme-3M
[9] = tested on: COLO 205
[10] = tested on: SN12C
[11] = tested on: HOP-92
[12] = tested on: SW-620
[13] = tested on: M14
[14] = tested on: HT-29
[15] = tested on: K562
[16] = tested on: SF-539
[17] = tested on: UACC-257
[18] = tested on: OVCAR-8
[19] = tested on: NCI-H522
[20] = tested on: HCC 2998

Measured: GI50

C=CCC1C(=O)Nc2cccc3ncn(c23)C1=O (stereo not given)
inactive: [1] > 100 µM | [2] > 100 µM | [3] > 100 µM | [4] > 100 µM | [5] > 100 µM | [6] > 100 µM | [7] > 100 µM | [8] > 100 µM | [9] > 100 µM | [10] > 100 µM | [11] > 100 µM | [12] > 100 µM | [13] > 100 µM | [14] > 100 µM | [15] > 100 µM | [16] > 100 µM | [17] > 100 µM | [18] > 100 µM

Cc1ccc(S(=O)(=O)c2c(O)c3ccccc3n(C)c2=O)cc1
inactive: [1] > 100 µM | [3] > 100 µM | [4] > 100 µM | [5] > 100 µM | [6] > 100 µM | [7] > 100 µM | [8] > 100 µM | [9] > 100 µM | [10] > 100 µM | [11] > 100 µM | [12] > 100 µM | [13] > 100 µM | [14] > 100 µM | [15] > 100 µM | [16] > 100 µM | [17] > 100 µM | [18] > 100 µM

COc1ccc(CNC(C)C(=O)O)cc1 (stereo not given)
inactive: [1] > 100 µM | [2] > 100 µM | [3] > 100 µM | [4] > 100 µM | [5] > 100 µM | [6] > 100 µM | [7] > 100 µM | [8] > 100 µM | [9] > 100 µM | [10] > 100 µM | [19] > 100 µM | [11] > 100 µM | [12] > 100 µM | [13] > 100 µM | [14] > 100 µM | [15] > 100 µM | [16] > 100 µM | [17] > 100 µM | [18] > 100 µM

C[C@@H]1[C@@H](c2ccccc2)O[B-](c2ccccc2)(c2ccccc2)N1C
inactive: [1] 52.1 µM | [2] 43.7 µM | [3] > 100 µM | [4] > 100 µM | [5] 33.4 µM | [6] 37.5 µM | [7] 35.9 µM | [8] 29.5 µM | [9] 22.3 µM | [10] 61.5 µM | [19] 34.5 µM | [11] 27.8 µM | [12] 50.8 µM | [13] 28.4 µM | [14] 85.9 µM | [15] 36.4 µM | [16] 27.3 µM | [17] 50.6 µM | [18] 72.3 µM

Cn1c(N)nc2c(nc(OCc3ccccc3)n2C2OC(CO)C(O)C2O)c1=O (stereo not given)
inactive: [1] > 100 µM | [2] 71.8 µM | [3] > 100 µM | [4] > 100 µM | [5] > 100 µM | [6] > 100 µM | [7] > 100 µM | [8] > 100 µM | [9] > 100 µM | [10] > 100 µM | [19] > 100 µM | [11] > 100 µM | [12] > 100 µM | [13] > 100 µM | [14] > 100 µM | [15] > 100 µM | [17] > 100 µM | [18] > 100 µM

Cc1ccc2c(=O)c(-c3nnc(N)s3)c[nH]c2n1
inactive: [1] > 100 µM | [2] > 100 µM | [3] > 100 µM | [4] 67.1 µM | [5] > 100 µM | [6] 83.4 µM | [7] > 100 µM | [8] > 100 µM | [9] > 100 µM | [10] > 100 µM | [19] > 100 µM | [12] > 100 µM | [13] > 100 µM | [14] > 100 µM | [15] > 100 µM | [17] > 100 µM | [18] 42.2 µM

CC(C)(CCC(C)(C)c1ccccc1)c1ccccc1
inactive: [1] 20 µM | [2] 18.5 µM | [3] 18.3 µM | [4] 16.7 µM | [5] 22.1 µM | [6] 12.9 µM | [7] 16.3 µM | [8] 16 µM | [9] 18.1 µM | [10] 18.2 µM | [19] 15.7 µM | [11] 19 µM | [12] 17.2 µM | [13] 18.7 µM | [14] 14.5 µM | [15] 21.8 µM | [16] 21.1 µM | [17] 14.3 µM | [18] 27 µM

CCNC(=O)C#CC(=O)NCC
inactive: [1] > 10 µM | [2] > 100 µM | [3] > 100 µM | [4] > 91.4 µM | [6] > 10 µM | [7] > 100 µM | [8] > 10 µM | [9] 44.6 µM | [10] > 100 µM | [19] > 31.1 µM | [11] > 100 µM | [12] > 48 µM | [13] > 100 µM | [14] > 100 µM | [20] > 100 µM | [15] > 45.3 µM | [16] > 100 µM | [17] > 100 µM | [18] > 100 µM

C[C@]12CCC(=O)C=C1CC[C@@H]1[C@@H]2CC[C@]2(C)C(=O)NC(=O)C[C@@H]12
inactive: [1] > 100 µM | [2] > 100 µM | [3] > 100 µM | [4] > 100 µM | [6] > 100 µM | [7] > 100 µM | [8] > 100 µM | [9] > 100 µM | [10] > 100 µM | [19] > 100 µM | [11] > 100 µM | [12] > 100 µM | [13] > 100 µM | [14] > 100 µM | [20] > 100 µM | [15] > 100 µM | [16] > 100 µM | [17] > 100 µM | [18] > 100 µM

Oc1ccc[n+](Cc2ccccc2)c1
inactive: [1] > 100 µM | [2] > 100 µM | [3] > 100 µM | [4] > 100 µM | [5] > 100 µM | [6] > 100 µM | [7] > 100 µM | [8] > 100 µM | [9] > 100 µM | [10] > 100 µM | [19] > 100 µM | [13] > 100 µM | [14] > 100 µM | [20] > 100 µM | [15] > 100 µM | [16] > 100 µM | [17] > 100 µM | [18] > 100 µM

CC1=Nc2sc3c(c2C2=NCCN12)CCCC3
inactive: [1] 28.6 µM | [2] 26.1 µM | [3] 39.6 µM | [4] 29 µM | [5] 27.5 µM | [6] 31.3 µM | [7] 28.2 µM | [8] 25.7 µM | [9] 32.3 µM | [10] 29.9 µM | [19] 19.5 µM | [12] 25.4 µM | [14] 18.6 µM | [20] 29.9 µM | [15] 23.6 µM | [17] 20.2 µM | [18] 15.3 µM
